Experimental data from article PMC9011347, “Small-Molecule Inhibitors Targeting Lipolysis in Human Adipocytes” (Journal of the American Chemical Society, 2022).

Key:
rhesus monkey ATGL = assay: TAG hydrolase assay, Expi293 lysates expressing ATGL orthologue; assay type: biochemical; details: NG-497 50 μM
Description: (§1) We previously developed Atglistatin (Ai), a selective inhibitor of mouse ATGL,[31],[32] which is ineffective against human ATGL.[17] Ai acts as a competitive inhibitor targeting the minimal active domain of ATGL ranging from aa 1–254.[33] This domain is highly conserved in different mammalian species (∼90% identity, Table 1) and comprises the patatin-like domain, eponymous for all members of the patatin-like phospholipase domain-containing (PNPLA) protein family.[34] We first investigated the species selectivity of Ai by performing TAG hydrolase assays[35] with lysates from Expi293 cells expressing ATGL orthologues of different species. The activity of ATGL is strongly stimulated by the co-activator protein comparative gene identification-58 (CGI-58, also known as α/β hydrolase domain containing 5, ABHD5)[36] and can be suppressed by the inhibitory protein G0/G1 switch 2 (G0S2).[37] We therefore determined ATGL activity in the presence and absence of mouse CGI-58, mouse G0S2, and Ai. As shown in Figure 1a–i, all ATGL orthologues were expressed, enzymatically active, stimulated by mouse CGI-58, and inactivated by mouse G0S2. Ai inhibited mouse (Figure 1a), rat (Figure 1b), goat (Figure 1c), dog (Figure 1e), and marmoset ATGL (Figure 1f), but not pig (Figure 1d), rhesus monkey (Figure 1g), or human ATGL (Figure 1h).
(§2) Experimental details, materials, and methods
(§3) Expression of recombinant ATGL constructs and preparation of cell lysates. Expi293 cells were cultivated in Expi293 Expression Medium (GIBCO, Thermo Fisher Scientific, Waltham, USA) at standard conditions (37°C, 5% CO2, 95% humidified atmosphere, 125 rpm). DNA constructs containing ATGL from different species and chimeric ATGL variants in pcDNA3.1(+)myc-His C Vector were obtained from BioCat GmbH (Heidelberg, Germany). Cells were transfected with ExpiFectamine293 Transfection Kit (GIBCO) in Opti-Mem reduced serum medium (GIBCO) according to the manufacturer’s instructions. After 48 h, cells were harvested by centrifugation and washed three times with PBS. Cells were disrupted in buffer A (0.25 M sucrose, 1 mM EDTA, 1 mM dithiothreitol, 20µg/ml leupeptin, 2 µg/ml antipain, 1 µg/ml pepstatin, pH 7.0) by sonication (Virsonic 475, Virtis, Gardiner, USA). Nuclei and debris were removed by centrifugation at 1,000 g and 4°C for 10 min. Protein concentrations were determined using Bio-Rad protein assay (Bio-Rad 785, Bio-Rad Laboratories, Munich, Germany) using BSA as standard.
(§4) Expression and purification of mouse CGI-58. CGI-58 was expressed and purified as described 1. In brief, the coding sequence of mouse Cgi-58 was cloned into pHis-Sumo and co-transformed with the plasmid pTf16 expressing the chaperone Tig into E. coli BL21(DE3). Cells were cultured overnight at 37°C and 180 rpm in the presence of 40 µg/ml kanamycin and 34 µg/ml chloramphenicol. Thereafter, cells were transferred into fresh LB medium, grown until OD600 of 0.6, and expression was induced by the addition of 0.5 mM IPTG. After overnight incubation at 30°C, cells were harvested at 4,500 x g and 4°C for 20 min, washed in 1x PBS, and resuspended in lysis buffer (20 mM Tris/HCl pH 7.8, 300 mM NaCl, 30 mM imidazole, 0.1% IGEPAL CA-630, 3.5 mM β-mercaptoethanol, 20 µg/ml leupeptin, 2 µg/ml antipain and 1 µg/ml pepstatin). Cells were incubated with 1 mg/ml lysozyme at 4°C for 20 min, disrupted by sonication, and lysates were centrifuged at 30,000 x g and 4°C for 40 min. His-CGI-58 was purified from the supernatant using an ÄKTA pure system (Cytiva, Uppsala, Sweden) equipped with a 5 ml HisTrap […]
(§5) Expression and purification of mouse G0S2. Chemically competent E. coli ArcticExpress (DE3) cells were transformed with the pST50-SMT3-TEV-mG0S2-His expression plasmid, plated on LB agar plates containing 100 ampicillin, and incubated […] overnight at 37°C. The next day, 10 ml LB medium supplemented with 100 μg/ml ampicillin, 20 μg/ml gentamycin and 2% glucose were inoculated with a single colony and incubated overnight at 37°C. […]

pig ATGL = assay: as above; assay type: biochemical; details: NG-497 50 μM
Description: as §1, §2, §3, §4, §5

`CCOc1ccc(-c2cc(OC)cc(C(=O)OC(C)C)n2)cc1` [NG-497] was tested, and the “inhibition of ATGL orthologue” value (rhesus monkey ATGL) was “inactivates” and the “reduction in TAG hydrolase activity” value (pig ATGL) was “less than 20%”.
